# Measured values: patent publication US20130064913A1, “ANTI-INFLAMMATORY BOTANICAL PRODUCTS FOR THE TREATMENT OF METABOLIC SYNDROME AND DIABETES” (Metaproteomics, LLC, priority 2001, published 2013)
# Where two headings read alike, the source gives them in different places. Marks after values point to notes of the source that are not given here.
# Columns and labels:
# [1] = tested on: LPS-treated 3T3-L1 adipocytes; test: Adiponectin secretion in LPS/3T3-L1 adipocytes; assay type: cell-based, murine; conditions: 100 ng LPS/ml
# [2] = tested on: PGE2 synthesis in LPS-stimulated RAW 264.7 cells; test: PGE2 inhibition in LPS-stimulated RAW 264.7 murine macrophages (Example 1); assay type: cell-based; conditions: for IC50: Mus musculus, RAW264.7; for Relative Potency: category of anti-inflammatory activity based on IC50
# [3] = tested on: insulin-resistant 3T3-L1 adipocytes; test: Adiponectin secretion from insulin-resistant 3T3-L1 adipocytes; assay type: cell-based, murine; conditions: for Adiponectin/IL-6: insulin-resistant model
# Description: For two days, the cells were allowed grow to reach confluence. […] Twenty-four hours later, the supernatant medium was sampled for adiponectin determination. […] The adiponectin secreted into the medium was quantified using the Mouse Adiponectin Quantikine® Immunoassay kit with no modifications (R&D Systems, Minneapolis, Minn.). […] Substituting {relative adiponectin secretion/[concentration]} for the independent variable v/[S] and {relative adiponectin secretion} for the dependant variable {v}, produced a relationship of the form y=mx+b. Maximum adiponectin secretion relative to the solvent control was estimated from the y-intercept, while the concentration of test material necessary for half maximal adiponectin secretion was computed from the negative value of the slope.
# [4] = tested on: 3T3-L1 adipocytes; test: Lipogenesis (Oil Red O / BODIPY) in 3T3-L1 adipocytes; assay type: cell-based, murine; conditions: hops compounds 10, 5, 4 or 2 μg/ml, spent hops 50 μg/ml (Example 19)
# [5] = tested on: TNFα-treated 3T3-L1 adipocytes; test: IL-6 secretion from TNFα-treated 3T3-L1 adipocytes; assay type: cell-based, murine; conditions: Mus musculus, 10 ng TNFα/ml; for inhibition at 1 µg/mL: 1.0 μg/ml
# [6] = tested on: NF-κB; test: NF-κB DNA binding of nuclear extracts (TransAM NF-κB kit) from LPS-stimulated RAW 264.7 cells; assay type: cell-based, murine; conditions: LPS 4 h; MgRIAA 55 and 14 μg/ml, parthenolide 80 μM, LY294002 25 μM
# Description: Nuclear extracts were prepared essentially as described by Dignam, et al [Nucl Acids Res 11:1475-1489, (1983)]. […] Cells were then scraped into a clean tube and processed through three cycles of freeze/thaw. The supernatant layer following centrifugation at 10,000×g for 5 min at 4° C. was the cytoplasmic fraction. […] The nuclear extract fraction was collected as the supernatant layer following centrifugation at 10,000×g for […] at 4° C. NF-kB DNA binding of the nuclear extracts was assessed using the TransAM NF-κB kit from Active Motif (Carlsbad, Calif.) as per manufacturer's instructions. […] Protein concentration was measured (Bio-Rad assay) and 10 μg of nuclear protein extracts were assayed in duplicate.
# [7] = tested on: COX-2 protein expression; test: COX-2 protein expression by Western blot in LPS-stimulated RAW 264.7 cells; assay type: cell-based, murine; conditions: 20 hours LPS, versus DMSO solvent control
# Description: Densitometry was performed using Kodak®software.
# [8] = arbitrary category of the median inhibitory concentration, read-out: Relative IC50
# [9] = test material added 90 min before LPS, 18 h, read-out: IC50 (PGE2 inhibition)
Structure (SMILES),IC50 [2] [mg/L],"IC50 [2, 8] [mg/L]","IC50 [2, 9] [mg/L]",other results
"O=C(O)c1ccccc1O [Salicylic acid, salicylic acid]",,,,% Stimulation of adiponectin secretion (maximum) [1]: failed to induce adiponectin secretion
"O=c1c(O)c(-c2ccccc2)oc2cc(O)cc(O)c12 [Galangin, galangin]",0.3 to 1.7,1,1.4,Relative Potency [2]: high
"O=C1C[C@@H](c2ccc(O)cc2)Oc2cc(O)cc(O)c21 [Naringenin, naringenin]",> 12,> 12,> 12,
"Oc1ccc(C=Cc2cc(O)cc(O)c2)cc1 [Resveratrol, resveratrol]",2 to 7,,,
"COc1ccc2c(c1)c(CC(=O)O)c(C)n2C(=O)c1ccc(Cl)cc1 [Indomethacin, indomethacin]",,,,% Stimulation of adiponectin secretion (maximum) [1]: 9%
"COc1cc(/C=C/C(=O)CC(=O)/C=C/c2ccc(O)c(OC)c2)ccc1O [Curcumin, curcumin]",2 to 7,2 to 6,,
"O=c1cc(-c2ccc(O)c(O)c2)oc2cc(O)cc(O)c12 [Luteolin, luteolin]",2 to 7,2 to 6,3.9,
CC(C)CCC1=C(O)C(C(=O)C(C)C)=C(O)C(CCC(C)C)(CCC(C)C)C1=O [Hexahydrocolupulone],,,,"Adiponectin/IL-6 ([3]; 25 μg/ml): 1.36#; Adiponectin/IL-6 ([3]; 50 μg/ml): 0.60#; concentration at which maximal adiponectin secretion was observed ([3]; of the four doses tested): 12.5 µg/mL; adipogenic response, in words [4]: failed to elicit a lipogenic response greater than the solvent controls"
"O=c1c(-c2ccc(O)cc2)coc2cc(O)cc(O)c12 [Genistein, genistein]",0.3 to 1.7,1,1.7,Relative Potency [2]: high
"CC1(C)CC[C@]2(C(=O)O)CC[C@]3(C)C(=CC[C@@H]4[C@@]5(C)CC[C@H](O)C(C)(C)[C@@H]5CC[C@]43C)[C@@H]2C1 [Oleanolic acid, oleanolic acid]",,1,,
"CC(C)Oc1ccc2c(=O)c(-c3ccccc3)coc2c1 [Ipriflavone, ipriflavone]",2 to 7,2 to 6,6.3,
CN(C)C(=N)N=C(N)N [Metformin],,,,inhibition at 1 µg/mL [5]: 9%; inhibition at 5 µg/mL ([5]; 5.0 μg/ml): 4%; inhibition at 10 µg/mL ([5]; 10 μg/ml): 22%; inhibition at 50 µg/mL ([5]; 50 μg/ml): 22%
O=c1cc(N2CCOCC2)oc2c(-c3ccccc3)cccc12 [LY294002],,,,"NF-κB DNA binding, in words [6]: modest decrease"
"O=c1cc(-c2ccc(O)cc2)oc2cc(O)cc(O)c12 [Apigenin, apigenin]",2 to 7,2 to 6,2.8,
O=c1c(O)c(-c2ccc(O)c(O)c2)oc2cc(O)cc(O)c12 [Quercetin],0.3 to 1.7,1,0.82,Relative Potency [2]: high
"O=c1c(O)c(-c2ccc(O)cc2O)oc2cc(O)cc(O)c12 [Morin, morin]",> 12,> 12,> 12,
"Cc1ccc(-c2cc(C(F)(F)F)nn2-c2ccc(S(N)(=O)=O)cc2)cc1 [Celecoxib, celecoxib]",,,,% Stimulation of adiponectin secretion (maximum) [1]: failed to induce adiponectin secretion
CC(=O)Oc1ccccc1C(=O)O [Aspirin],,,,% Stimulation of adiponectin secretion (maximum) [1]: failed to induce adiponectin secretion
CCc1ccc(CCOc2ccc(CC3SC(=O)NC3=O)cc2)nc1 (centres unmarked) [Pioglitazone],,,,Adiponectin Index (maximum stimulation) ([1]; relative to LPS control): 1.12*
C=C1C(=O)O[C@H]2[C@H]1CC/C(C)=C/CC[C@@]1(C)O[C@@H]21 [Parthenolide],,,,"NF-κB DNA binding, in words [6]: significant reduction; reduction of COX-2 protein expression [7]: 22.5%"
"O=c1c(O)c(-c2ccc(O)c(O)c2)oc2cc(O)ccc12 [Fisetin, fisetin]",> 12,> 12,> 12,
Cc1c(C)c2c(c(C)c1O)CCC(C)(COc1ccc(CC3SC(=O)NC3=O)cc1)O2 (centres unmarked) [Troglitazone],,,,Concentration at maximum stimulation of adiponectin secretion [1]: 0.625 µg/mL; inhibition at 1 µg/mL [5]: 34%
COc1ccc2cc3[n+](cc2c1OC)CCc1cc2c(cc1-3)OCO2 [Berberine],2 to 7,,,
